Tested on: preferentially upregulated genes in LV, SP, LN
Test: Z-score-based differential gene expression analysis (adjuvant group- or adjuvant-associated genes, 40 module mapping, TargetMine annotation)
Format: in vivo, C57BL/6 mice
Settings: ID, LV
How it was run: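 Per-sample fold-change values converted to gene-wise z-scores within each organ's data set, then triplicate z-scores summed per adjuvant. Genes with summed score >3 taken as preferentially expressed; gene groups defined by combined per-adjuvant z-score thresholds (z>1 to z>3) specific to each organ.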

Nc1nc2c(ncn2[C@@H]2O[C@@H]3COP(=O)(O)O[C@H]4[C@@H](O)[C@H](n5cnc6c(=O)[nH]c(N)nc65)O[C@@H]4COP(=O)(O)O[C@H]3[C@H]2O)c(=O)[nH]1 [cdiGMP, Cyclic diguanylate monophosphate]
Rsad2 1436058_at (Group G1, Modules 20) (sample x1): 2.39
Shisa5 1423986_a_at (Group G1, Modules 20) (sample x1): 0.72
Shisa5 1437503_a_at (Group G1, Modules 20) (sample x1): 1.05
Stat1 1450033_a_at (Group G1, Modules 20) (sample x1): 1.49
Stat1 1450034_at (Group G1, Modules 20) (sample x1): 0.88
Tdrd7 1426716_at (Group G1, Modules 20) (sample x1): 1.47
Tor1aip2 1418115_s_at (Group G1, Modules 20) (sample x1): 1.81
Tor1aip2 1418116_at (Group G1, Modules 20) (sample x1): 1.58
Tor1aip2 1435526_at (Group G1, Modules 20) (sample x1): 0.94
Trim12a 1437432_a_at (Group G1, Modules 20) (sample x1): 0.73
Uba7 1426970_a_at (Group G1, Modules 20) (sample x1): 0.53
Adar 1425405_a_at (Group G1, Modules 20) (sample x2): 1.67
Adar 1434268_at (Group G1, Modules 20) (sample x2): 1.83
Ddx58 1436562_at (Group G1, Modules 20) (sample x2): 0.88
Ddx58 1456890_at (Group G1, Modules 20) (sample x2): 1.45
Eif2ak2 1422005_at (Group G1, Modules 20) (sample x2): 1.38
G3bp2 1421323_a_at (Group G1, Modules 20) (sample x2): 1.5
Gm9706///Isg15 1431591_s_at (Group G1, Modules 20) (sample x2): 0.94
H2-T10///H2-T22///H2-T9 1449875_s_at (Group G1, Modules 20) (sample x2): 1.04
Ifih1 1426276_at (Group G1, Modules 20) (sample x2): 1.09
Ifit1 1450783_at (Group G1, Modules 20) (sample x2): 2.28
Ifit3 1449025_at (Group G1, Modules 20) (sample x2): 1.75
Irf7 1417244_a_at (Group G1, Modules 20) (sample x2): 1.21
Irgm1 1418825_at (Group G1, Modules 20) (sample x2): 1.29
Mndal 1426906_at (Group G1, Modules 20) (sample x2): 2.45
Pml 1448757_at (Group G1, Modules 20) (sample x2): 1.57
Pml 1456103_at (Group G1, Modules 20) (sample x2): 1.3
Rnf213 1455500_at (Group G1, Modules 20) (sample x2): 2.08
Rsad2 1436058_at (Group G1, Modules 20) (sample x2): 2.41
Shisa5 1423986_a_at (Group G1, Modules 20) (sample x2): 1.07
Shisa5 1437503_a_at (Group G1, Modules 20) (sample x2): 1.12
Stat1 1450033_a_at (Group G1, Modules 20) (sample x2): 1.44
Stat1 1450034_at (Group G1, Modules 20) (sample x2): 1.02
Tdrd7 1426716_at (Group G1, Modules 20) (sample x2): 1.15
Tor1aip2 1418115_s_at (Group G1, Modules 20) (sample x2): 1.67
Tor1aip2 1418116_at (Group G1, Modules 20) (sample x2): 1.33
Tor1aip2 1435526_at (Group G1, Modules 20) (sample x2): 0.83
Trim12a 1437432_a_at (Group G1, Modules 20) (sample x2): 0.83
Uba7 1426970_a_at (Group G1, Modules 20) (sample x2): 1.46
Adar 1425405_a_at (Group G1, Modules 20) (sample x3): 1.66
Adar 1434268_at (Group G1, Modules 20) (sample x3): 2.95
Ddx58 1436562_at (Group G1, Modules 20) (sample x3): 1.49
Ddx58 1456890_at (Group G1, Modules 20) (sample x3): 2.07
Eif2ak2 1422005_at (Group G1, Modules 20) (sample x3): 1.93
G3bp2 1421323_a_at (Group G1, Modules 20) (sample x3): 2.34
Gm9706///Isg15 1431591_s_at (Group G1, Modules 20) (sample x3): 2.02
H2-T10///H2-T22///H2-T9 1449875_s_at (Group G1, Modules 20) (sample x3): 2.06
Ifih1 1426276_at (Group G1, Modules 20) (sample x3): 1.65
Ifit1 1450783_at (Group G1, Modules 20) (sample x3): 2.4
Ifit3 1449025_at (Group G1, Modules 20) (sample x3): 2.34
Irf7 1417244_a_at (Group G1, Modules 20) (sample x3): 1.92
Irgm1 1418825_at (Group G1, Modules 20) (sample x3): 1.81
Mndal 1426906_at (Group G1, Modules 20) (sample x3): 2.76
Pml 1448757_at (Group G1, Modules 20) (sample x3): 2.16
Pml 1456103_at (Group G1, Modules 20) (sample x3): 2.58
Rnf213 1455500_at (Group G1, Modules 20) (sample x3): 3.16
Rsad2 1436058_at (Group G1, Modules 20) (sample x3): 2.39
Shisa5 1423986_a_at (Group G1, Modules 20) (sample x3): 1.57
Shisa5 1437503_a_at (Group G1, Modules 20) (sample x3): 1.32

— US20230021483A1, “[…] […] METHOD AND CLASSIFICATION OF PHARMACEUTICAL COMPONENTS BY USING TRANSCRIPTOMES” (National Institutes of Biomedical Innovation, Health and …, priority 2016, published 2023)
